{"source": "paper PMC12041881", "about": "“Tailored phenyl ureas eradicate drug-resistant Mycobacterium tuberculosis by targeting mycolic acid cell wall assembly” (Chemical Science, 2025)", "key": {"[1]": {"tested_on": "MmpL3 over- (+ATc) expressing Mtb H37Rv", "assay_type": "cell-based, M. tuberculosis"}, "[2]": {"tested_on": "227-resistant mutants of M. tuberculosis H37rv", "assay_type": "cell-based"}, "M. tuberculosis H37Rv": {"tested_on": "M. tuberculosis H37Rv", "assay_type": "cell-based"}}, "data": [{"smiles": "CC[C@@H](CO)NCCN[C@@H](CC)CO", "note": "[Ethambutol]", "values": [{"measurement": "susceptibility shift in MmpL3 over-expressing strain", "setting": "[1]", "result": "no significant shifts"}]}, {"smiles": "O=C(Nc1ccc(Cl)c(C(F)(F)F)c1)NC1CCCCC1", "note": "[Compound 227]", "values": [{"measurement": "IC50", "setting": "[2]", "result": 3.3, "unit": "µM"}, {"measurement": "estimated frequency of resistance", "setting": "M. tuberculosis H37Rv", "result": "1.5 × 10^−7"}]}]}
